Data as given in PMC5981863 (ACS infectious diseases, 2017).
pKi: −log10 of the molar value. Converted amounts (≈) assume the structure as drawn.

Key:
[1] = test system: E. coli DH10B pBCSK, blaADC-7, N213A; experiment: MIC, agar dilution and liquid microdilution; format: cell-based, Escherichia coli
[2] = test system: A. baumannii M9; experiment: MIC, agar dilution and liquid microdilution; format: cell-based
[3] = test system: E. coli DH10B; experiment: MIC, agar dilution and liquid microdilution; format: cell-based, Escherichia coli
[4] = test system: E. coli DH10B pBCSK, blaADC-7, R340K; experiment: MIC, agar dilution and liquid microdilution; format: cell-based, Escherichia coli
[5] = test system: E. coli DH10B pBCSK, blaADC-7; experiment: MIC, agar dilution and liquid microdilution; format: cell-based, Escherichia coli
[6] = test system: E. coli DH10B pBCSK, blaADC-7, R340A; experiment: MIC, agar dilution and liquid microdilution; format: cell-based, Escherichia coli
[7] = target: ADC-7/R340A mutant; experiment: Competition kinetics with nitrocefin; format: biochemical, Acinetobacter baumannii
[8] = test system: ADC-7; experiment: Thermal denaturation by circular dichroism; format: binding, Acinetobacter baumannii; details: ADC-7 alone Tm ≈61 °C
[9] = MIC of CAZ in combination with 4 μg/mL BATSI compound

Structure (SMILES) | MIC ([1]; Escherichia coli) [µg/mL] | MIC ([2]; Acinetobacter baumannii, M9) [µg/mL] | MIC ([2]; CAZ alone) [µg/mL] | MIC ([3]; Escherichia coli, DH10B) [µg/mL] | MIC ([4]; Escherichia coli) [µg/mL] | MIC ([5]; Escherichia coli) [µg/mL] | MIC ([6]; Escherichia coli) [µg/mL] | MIC [1, 9] [µg/mL] | MIC [2, 9] [µg/mL] | MIC [3, 9] [µg/mL] | MIC [4, 9] [µg/mL] | MIC [5, 9] [µg/mL] | MIC [6, 9] [µg/mL] | pKi [7] | Tm of ADC-7/compound complex [8] [°C]
CC(C)(O/N=C(\C(=O)N[C@@H]1C(=O)N2C(C(=O)[O-])=C(C[n+]3ccccc3)CS[C@H]12)c1csc(N)n1)C(=O)O [CAZ, ceftazidime, reference compound] | 32 (≈ 58.5 µM) | > 64 | >64 | 1 (≈ 1.83 µM) | 32 (≈ 58.5 µM) | 64 (≈ 117 µM) | 32 (≈ 58.5 µM) |  |  |  |  |  |  |  | 
O=S(=O)(NCB(O)O)c1ccc(-c2nn[nH]n2)cc1 [CR157] |  |  |  |  |  |  |  | 2 | 8 | 0.5 | 1 | 1 | 0.5 |  | 
O=S(=O)(NCB(O)O)c1ccc(-c2nn[nH]n2)nc1 [CR161] |  |  |  |  |  |  |  | 2 |  | 0.5 | 1 | 0.5 | 1 |  | 
O=C(O)c1cccc(CS(=O)(=O)NCB(O)O)c1 [CR167] |  |  |  |  |  |  |  | 4 | 16 | 0.5 | 4 | 1 | 2 |  | 
O=S(=O)(NCB(O)O)c1ccc(-c2nn[nH]n2)cc1C(F)(F)F [CR192] |  |  |  |  |  |  |  | 1 | 8 | 0.5 | 2 | 2 | 0.5 | 8.08 | ~70
O=C(Cc1cccs1)NCB(O)O [achiral cephalothin, reference compound] |  |  |  |  |  |  |  | 32 | 32 | 0.5 | 32 | 32 | 32 |  | 
